Assay results: patent publication EP0233459A1, “Medicament containing a magnesium-urea complex of acetylsalicylic acid and process for the preparation of this complex” (ARTIKA INTERNATIONAL (HONG-KONG) LIMITED, priority 1986, dated 1987)

Columns and labels:
[1] = tested on: oedème provoqué sur patte de rat; experiment: Induced rat paw oedema (formol or ovalbumine; tables do not say which); format: in vivo; settings: for Δ V1 heure: 1 heure; for Δ V1 heure / Δ V3 heures / VARIATIONS DE VOLUME EXPRIME EN % / INDICE DE PROTECTION: 20 mg/kg en équivalent aspirine; for Δ V3 heures: 3 heures
Description: Deux tests de production d'oedème provoqué sur patte de rat, l'un au formol, et l'autre à l'ovalbumine ont été choisis. Dans les deux cas les mesures ont été opérées en incluant une série d'animaux traitée avec de l'aspirine, en comparaison de celle traitée avec l'ASMU.
La dose d'anti-inflammatoire est de 20 mg/kg dans les trois cas, en équivalent aspirine.

[2] = tested on: souris; experiment: Hot plate test (analgesic activity); format: in vivo; settings: moyenne de dix essais
From the text: Le test dit "de la plaque chauffante" a donc été pratiqué pour déterminer de la valeur de l'ASMU en comparaison avec l'aspirine. Le principe de la méthode consiste à poser une souris sur une plaque dont on a élevé la température en fonction du temps. On note la température à laquelle la souris saute, la sensation de chaleur devenant douleur. Cette température est relativement fixe pour chaque animal.
En recommançant la même expérience avec la souris après administration d'une dose d'un analgésique, on notera une température plus élevée qui sera fonction de la dose et de l'action antalgique de la substance.
Dans le tableau V ci-après ont été rassemblés les ré-sultats, correspondants à une moyenne de dix essais obtenus pour l'aspirine (AAS), l'"ASPEGIC" (ASL) et l'ASMU.

[3] = tested on: oreille de lapin; settings: in vivo
From the text: Une expérience a été menée sur lapins, afin de déterminer le temps de saignement modifié par l'administration d'ASMU et d'aspirine à doses équivalentes.

[4] = tested on: muqueuse gastrique; format: in vivo, rat
From the text: En addition des résultats obtenus lors de l'étude de la toxicité générale de l'ASMU, une expérimentation particulière a été menée sur le rat pour déterminer de façon plus précise l'action irritant sur la muqueuse gastrique que peut développer l'ASMU par rapport à l'aspirine.
Le rat placé dans des conditions de contrainte (cage de petite dimension, n'interdisant pas le mouvement, mais empêchant l'animal de se déplacer et même de se retourner) pendant une durée de douze heures pendant plusieurs jours, développe rapidement une irritation de l'estomac qui évolue jusqu'à l'ulcère.
Sur cet animal sensibilisé, on peut tester, en même temps que la contrainte, l'action de médicaments irritants qui accélèrent le processus de formation de l'ulcère. En fin d'expé-rience, on sacrifie les animaux, et l'examen de la muqueuse gastrique permet de tirer des conclusions sur le pouvoir irritant des substances en comparaison avec les produits de référence.

[5] = même dose d'aspirine, une heure après administration; 60 min; cited from earlier work
[6] = aspirine, literature knowledge; cited from earlier work
[7] = une heure après l'administration, literature knowledge; cited from earlier work
[8] = pH of the aqueous solution; format: physicochemical; settings: solution aqueuse, dix pour cent (p/v)
From the text: La solution aqueuse du complexe ASMU, à concentration de dix pour cent (p/v), présente une valeur de pH très proche de 6, donc proche de la neutralité et tout à fait compatible avec celui du pH sanguin.

[9] = tested on: rat; settings: in vivo
From the text: (§1) Des expérimentations ont été réalisées sur l'ASMU. La toxicité aiguë a été étudiée par la détermination classique de la DL₅₀, correspondant à la dose de substance qui, administrée à un groupe d'animaux, provoque la port de la moitié d'entre eux.

[10] = tested on: souris; settings: in vivo
From the text: as §1

[11] = tested on: rat; settings: in vivo; remark: listed apart in the source
[12] = tested on: porc; settings: in vivo
[13] = tested on: ostéochondrites déformantes infectieuses; experiment: Therapeutic use in infectious deforming osteochondritis; format: in vivo; settings: tous les cas traités
From the text: A titre d'exemple d'application thérapeutique inhabituelle, on a pu observer l'action curative de l'ASMU dans le traitement d'ostéochondrites déformantes infectieuses. […] Seule la déformation a persisté lorsqu'elle existait, comme on pouvait s'y attendre.

[14] = état sec
[15] = human, in vivo, po, 5 h
[16] = in vivo
[17] = in vivo; remark: listed apart in the source
From the text: L'étude de la biodisponibilité de l'ASMU a été effec­tuée sur diverses espèces animales et sur l'homme, en réalisant des dosages de la forme acétylée et désacétylée dans le temps.

CC(=O)Oc1ccccc1C(=O)O [A S L]
Δ V1 heure ([1]; 20 mg/kg): 0,490±0,04 cm^3 | Δ V3 heures ([1]; 20 mg/kg): 0,700±0,15 cm^3 | VARIATIONS DE VOLUME EXPRIME EN % ([1]; A 1 heure, 20 mg/kg): 50,16% | VARIATIONS DE VOLUME EXPRIME EN % ([1]; A 3 heures, 20 mg/kg): 72,29% | INDICE DE PROTECTION ([1]; à 1 heure, 20 mg/kg): 35% | INDICE DE PROTECTION ([1]; à 3 heures, 20 mg/kg): 43% | Δt(°C) ([2]; 1 heure après administration): 2,15 °C | Δt(°C) ([2]; 2 heures après administration): 1,90 °C | Δt(°C) ([2]; 3 heures après administration): 0,45 °C | Δt(°C) ([2]; ½ heure après administration): 1,25 °C | ALLONGEMENT DU TEMPS DE SAIGNEMENT [3]: 35%

CC(=O)Oc1ccccc1C(=O)O [AAS, aspirine]
Δ V1 heure ([1]; 20 mg/kg): 0,580±0,03 cm^3 | Δ V3 heures ([1]; 20 mg/kg): 0,930±0,05 cm^3 | VARIATIONS DE VOLUME EXPRIME EN % ([1]; A 1 heure, 20 mg/kg): 72% | VARIATIONS DE VOLUME EXPRIME EN % ([1]; A 3 heures, 20 mg/kg): 115,01% | INDICE DE PROTECTION ([1]; à 1 heure, 20 mg/kg): 7% | INDICE DE PROTECTION ([1]; à 3 heures, 20 mg/kg): 10% | Δt(°C) ([2]; 1 heure après administration): 1,15 °C | Δt(°C) ([2]; 2 heures après administration): 1,40 °C | Δt(°C) ([2]; 3 heures après administration): 0,75 °C | Δt(°C) ([2]; ½ heure après administration): 0,90 °C | animaux traités avec ulcères ([4]; rat sous contrainte): 80 pour cent | ALLONGEMENT DU TEMPS DE SAIGNEMENT [3]: 66% | quantités d'aspirine retrouvées dans le sang [5]: ~3 mg par litre | part de la dose absorbée par l'organisme [6]: deux tiers | part de la dose initiale sous la forme acétylée [7]: ~10 pour 100

CC(=O)Oc1ccccc1C(=O)[O-].CC(=O)Oc1ccccc1C(=O)[O-].NC(N)=O.[Mg+2] [ASMU, acétylsalicylate de magnésium-urée]
pH [8]: ~6 | Δ V1 heure [1]: 0,150±0,04 cm^3 | Δ V3 heures [1]: 0,170±0,03 cm^3 | VARIATIONS DE VOLUME EXPRIME EN % ([1]; A 1 heure): 16,48% | VARIATIONS DE VOLUME EXPRIME EN % ([1]; A 3 heures): 18,61% | activité anti-inflammatoire par rapport à celle de l'aspirine ([1]; en moyenne, tests au formol et à l'ovalbumine): dix fois supérieure | INDICE DE PROTECTION ([1]; à 1 heure): 78,6% | INDICE DE PROTECTION ([1]; à 3 heures): 85,4% | Δt(°C) ([2]; 1 heure après administration): 4,75 °C | Δt(°C) ([2]; 2 heures après administration): 4,90 °C | Δt(°C) ([2]; 3 heures après administration): 4,90 °C | Δt(°C) ([2]; ½ heure après administration): 3,70 °C | toxicité aiguë (DL₅₀) diminuée par rapport à l'équivalent aspirine [9]: ~20 pour cent | toxicité aiguë (DL₅₀) diminuée par rapport à l'équivalent aspirine [10]: ~20 pour cent | toxicité chronique: examens cliniques et anatomopathologiques [11]: n'a pas provoqué d'anomalie particulière | toxicité chronique: lésion rénale ou stomacale [11]: aucun signe de lésion rénale ou stomacale | toxicité chronique: examens cliniques et anatomopathologiques [12]: n'a pas provoqué d'anomalie particulière | toxicité chronique: lésion rénale ou stomacale [12]: aucun signe de lésion rénale ou stomacale | irritation de la muqueuse gastrique ([4]; rat, in vivo): irritation comparable, mais légèrement supérieure à celle des témoins | ALLONGEMENT DU TEMPS DE SAIGNEMENT [3]: 7% | action curative [13]: l'inflammation a regressé, puis disparu | durée de conservation sans altération notable [14]: deux ans et demi | acétylsalicylémie [15]: 40 mg par litre de plasma | absorption [16]: pratiquement complète | acétylsalicylémie, fois plus élevée que celle d'une dose équivalente d'aspirine [17]: entre dix et quinze | salicylémie moyenne, % de la quantité circulante [17]: ~10 pour cent
